Tests used:
[1] = biological target: T1, UGT1A7 (Homo sapiens, UniProt Q9HAW7); experiment: UGT1A7 supersomes-catalyzed 4-MU glucuronidation inhibition; conditions: recombinant human UGT, mean of triplicate
T1 sequence (Q9HAW7 26-530): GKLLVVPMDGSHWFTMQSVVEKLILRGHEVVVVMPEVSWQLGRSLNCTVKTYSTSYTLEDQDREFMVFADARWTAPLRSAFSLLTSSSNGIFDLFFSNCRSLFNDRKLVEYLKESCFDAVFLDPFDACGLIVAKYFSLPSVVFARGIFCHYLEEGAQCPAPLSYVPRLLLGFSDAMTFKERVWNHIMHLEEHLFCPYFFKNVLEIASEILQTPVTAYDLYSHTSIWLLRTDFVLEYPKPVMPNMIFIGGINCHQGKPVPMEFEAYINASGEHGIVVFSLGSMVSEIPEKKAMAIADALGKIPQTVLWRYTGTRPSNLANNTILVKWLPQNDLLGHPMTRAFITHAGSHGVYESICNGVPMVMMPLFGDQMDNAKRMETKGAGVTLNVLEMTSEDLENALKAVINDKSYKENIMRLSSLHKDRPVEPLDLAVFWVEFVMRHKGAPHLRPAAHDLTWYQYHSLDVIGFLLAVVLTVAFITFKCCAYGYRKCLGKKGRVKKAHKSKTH

[2] = biological target: T2, UGT1A9 (Homo sapiens, UniProt O60656); experiment: UGT1A9 supersomes-catalyzed 4-MU glucuronidation inhibition; conditions: for residual activity 1A9: recombinant human UGT, mean of triplicate
T2 sequence (O60656 26-530): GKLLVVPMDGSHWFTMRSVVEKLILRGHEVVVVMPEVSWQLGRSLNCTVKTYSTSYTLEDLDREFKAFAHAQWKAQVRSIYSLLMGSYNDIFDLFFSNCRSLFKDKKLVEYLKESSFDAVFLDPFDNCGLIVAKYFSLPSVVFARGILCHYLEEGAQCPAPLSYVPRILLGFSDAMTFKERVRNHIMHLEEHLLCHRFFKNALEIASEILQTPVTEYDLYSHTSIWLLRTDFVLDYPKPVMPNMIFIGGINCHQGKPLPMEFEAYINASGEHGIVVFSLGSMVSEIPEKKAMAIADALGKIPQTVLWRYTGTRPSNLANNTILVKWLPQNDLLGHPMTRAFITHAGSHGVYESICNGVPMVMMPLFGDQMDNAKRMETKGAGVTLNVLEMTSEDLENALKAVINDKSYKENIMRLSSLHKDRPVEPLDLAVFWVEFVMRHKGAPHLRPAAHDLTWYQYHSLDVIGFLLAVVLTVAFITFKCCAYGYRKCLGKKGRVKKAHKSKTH

[3] = biological target: T3, UGT1A3 (Homo sapiens, UniProt P35503); experiment: UGT1A3 supersomes-catalyzed 4-MU glucuronidation inhibition; conditions: recombinant human UGT, mean of triplicate
T3 sequence (P35503 29-534): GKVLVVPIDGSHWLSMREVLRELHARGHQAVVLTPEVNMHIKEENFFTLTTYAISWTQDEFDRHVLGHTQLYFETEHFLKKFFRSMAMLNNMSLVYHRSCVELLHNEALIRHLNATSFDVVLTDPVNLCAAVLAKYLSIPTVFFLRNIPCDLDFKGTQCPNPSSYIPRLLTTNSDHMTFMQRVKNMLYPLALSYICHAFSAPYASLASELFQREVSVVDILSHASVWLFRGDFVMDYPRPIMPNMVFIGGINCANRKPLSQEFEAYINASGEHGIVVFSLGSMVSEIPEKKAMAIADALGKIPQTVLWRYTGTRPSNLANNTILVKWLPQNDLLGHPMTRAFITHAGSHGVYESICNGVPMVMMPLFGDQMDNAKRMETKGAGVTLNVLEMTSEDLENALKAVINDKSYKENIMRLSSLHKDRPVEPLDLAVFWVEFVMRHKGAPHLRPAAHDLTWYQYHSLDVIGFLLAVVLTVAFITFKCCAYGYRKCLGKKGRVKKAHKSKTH

[4] = test system: UGT isoforms; experiment: Initial screening towards all UGT isoforms; format: biochemical, human; conditions: about 50 μM; isoforms not given

Row | SMILES | residual activity 1A7 ([1]; 50 μM PC components) | residual activity 1A9 ([2]; 50 μM PC components) | residual activity 1A3 ([3]; 50 μM PC components) | residual activity 1A7 ([1]; 50 μM LPC components) | residual activity 1A9 ([2]; 50 μM LPC components) | residual activity 1A3 ([3]; 50 μM LPC components) | inhibition of activity of UGT isoforms [4] | inhibition percentage of UGT1A9 activity ([2]; 50 μM)
1 | CCCCCC(=O)OC[C@H](COP(=O)([O-])OCC[N+](C)(C)C)OC(=O)CCCCC [PC 6:0, 6:0] | 166.0% | 96.1% | 105.1% | – | – | – | – | –
2 | CCCCCCC(=O)OC[C@H](COP(=O)([O-])OCC[N+](C)(C)C)OC(=O)CCCCCC [PC 7:0, 7:0] | 150.2% | 137.7% | 109.9% | – | – | – | – | –
3 | CCCCCCCCC(=O)OC[C@@H](O)COP(=O)([O-])OCC[N+](C)(C)C [LPC 9:0] | – | – | – | 134.9% | 94.5% | 79.6% | – | –
4 | CCCCCCCCCCCCCCCCCCCC(=O)OC[C@H](COP(=O)([O-])OCC[N+](C)(C)C)OC(=O)CCCCCCCCCCCCCCCCCCC [PC 20:0, 20:0] | 125.5% | 65.6% | 90.8% | – | – | – | – | –
5 | CCCCCCCCCCCCCCC(=O)OC[C@H](COP(=O)([O-])OCC[N+](C)(C)C)OC(=O)CCCCCCCCCCCCCC [PC 15:0, 15:0] | 172.7% | 64.7% | 103.4% | – | – | – | – | –
6 | CCCCCCCCCCCCCCCCC(=O)OC[C@H](COP(=O)([O-])OCC[N+](C)(C)C)OC(=O)CCCCCCCCCCCCCCCC [PC 17:0, 17:0] | 138.9% | 65.7% | 81.4% | – | – | – | – | –
7 | CC/C=C\C/C=C\C/C=C\C/C=C\C/C=C\C/C=C\CCC(=O)O[C@H](COC(=O)CCCCCCCCCCCCCCCCC)COP(=O)([O-])OCC[N+](C)(C)C [PC 18:0, 22:6, 1-stearoyl-2-docosahexaenoyl-sn-glycero-3-phosphocholine] | 167.9% | 94.4% | 90.0% | – | – | – | – | –
8 | CCCCCCCCCCCCC(=O)OC[C@H](COP(=O)([O-])OCC[N+](C)(C)C)OC(=O)CCCCCCCCCCCC [PC 13:0, 13:0] | 160.6% | 99.2% | 110.7% | – | – | – | – | –
9 | CCCCCCCCCCCCCCCC(=O)OC[C@H](COP(=O)([O-])OCC[N+](C)(C)C)OC(=O)CCCCCCCCCCCCCCC [PC 16:0, 16:0] | 155.2% | 67.5% | 92.6% | – | – | – | – | –
10 | CCCCCC(=O)OC[C@@H](O)COP(=O)([O-])OCC[N+](C)(C)C [LPC 6:0] | – | – | – | 130.6% | 95.9% | 84.4% | – | –
11 | CCCCCCCCCCCCCC(=O)OC[C@@H](O)COP(=O)([O-])OCC[N+](C)(C)C [LPC 14:0] | – | – | – | 153.6% | 97.5% | 74.2% | – | –
12 | CCCCCCCCCC(=O)OC[C@H](COP(=O)([O-])OCC[N+](C)(C)C)OC(=O)CCCCCCCCC [PC 10:0, 10:0] | 163.2% | 158% | 107.4% | – | – | – | – | –
13 | CCCCCCCC(=O)OCC(O)COP(=O)([O-])OCC[N+](C)(C)C (stereo not shown) [LPC 8:0] | – | – | – | 133.3% | 99.6% | 80.3% | – | –
14 | CCCCCCC(=O)OCC(O)COP(=O)([O-])OCC[N+](C)(C)C (stereo not shown) [LPC 7:0] | – | – | – | 138.3% | 92.9% | 80.4% | – | –
15 | CCCCCCCCCCCCCCC(=O)OC[C@@H](O)COP(=O)([O-])OCC[N+](C)(C)C [LPC 15:0] | – | – | – | 156.2% | 82.8% | 52.8% | more than 90% | –
16 | CCCCCCCCC(=O)OC[C@H](COP(=O)([O-])OCC[N+](C)(C)C)OC(=O)CCCCCCCC [PC 9:0, 9:0] | 137% | 10.7% | 117.7% | – | – | – | – | 89.3%

Row | SMILES | residual activity 1A7 ([1]; 50 μM PC components) | residual activity 1A9 ([2]; 50 μM PC components) | residual activity 1A3 ([3]; 50 μM PC components) | residual activity 1A7 ([1]; 50 μM LPC components) | residual activity 1A9 ([2]; 50 μM LPC components) | residual activity 1A3 ([3]; 50 μM LPC components) | inhibition of activity of UGT isoforms [4] | inhibition percentage of UGT1A9 activity ([2]; 50 μM)
17 | CCCCCCCCCCCCCCCCCCCCC(=O)OC[C@H](COP(=O)([O-])OCC[N+](C)(C)C)OC(=O)CCCCCCCCCCCCCCCCCCCC [PC 21:0, 21:0] | 122.0% | 38.1% | 88.2% | – | – | – | – | –
18 | CCCCCCCCCCCC(=O)OC[C@@H](O)COP(=O)([O-])OCC[N+](C)(C)C [LPC 12:0] | – | – | – | 138.6% | 89.2% | 74.8% | – | –
19 | CCCCCCCCCCC(=O)OC[C@H](COP(=O)([O-])OCC[N+](C)(C)C)OC(=O)CCCCCCCCCC [PC 11:0, 11:0] | 175.5% | 97.8% | 110.7% | – | – | – | – | –
20 | CCCCCCCCCCCCCCCCCCCCCC(=O)OC[C@H](COP(=O)([O-])OCC[N+](C)(C)C)OC(=O)CCCCCCCCCCCCCCCCCCCCC [PC 22:0, 22:0] | 86.2% | 43.9% | 92.1% | – | – | – | – | –
21 | CCCCCCCC(=O)OC[C@H](COP(=O)([O-])OCC[N+](C)(C)C)OC(=O)CCCCCCC [PC 8:0, 8:0] | 114.8% | 180.5% | 119.1% | – | – | – | – | –
22 | CCCCCCCCCCCC(=O)OC[C@H](COP(=O)([O-])OCC[N+](C)(C)C)OC(=O)CCCCCCCCCCC [PC 12:0, 12:0] | 171.4% | 84.1% | 93.0% | – | – | – | – | –
23 | CCCCCCCCCCCCCCCCCCC(=O)OC[C@H](COP(=O)([O-])OCC[N+](C)(C)C)OC(=O)CCCCCCCCCCCCCCCCCC [PC 19:0, 19:0] | 135.5% | 42.3% | 75.9% | – | – | – | – | –
24 | CCCCCCCCCC(=O)OC[C@@H](O)COP(=O)([O-])OCC[N+](C)(C)C [LPC 10:0] | – | – | – | 139.8% | 99.2% | 75.9% | – | –
25 | CCCCCCCCCCCCCCCCCC(=O)OC[C@@H](O)COP(=O)([O-])OCC[N+](C)(C)C [LPC 18:0] | – | – | – | 133.4% | 64.4% | 72.4% | more than 90% | –
26 | CCCCCCCCCCCCC(=O)OC[C@@H](O)COP(=O)([O-])OCC[N+](C)(C)C [LPC 13:0] | – | – | – | 120.1% | 99.4% | 88.1% | – | –
27 | CCCCCCCCCCCCCCCCCCCCCCC(=O)OC[C@H](COP(=O)([O-])OCC[N+](C)(C)C)OC(=O)CCCCCCCCCCCCCCCCCCCCCC [PC 23:0, 23:0] | 118.8% | 77.3% | 80.4% | – | – | – | – | –
28 | CCCCCCCCCCCCCCCCCC(=O)OC[C@H](COP(=O)([O-])OCC[N+](C)(C)C)OC(=O)CCCCCCCCCCCCCCCCC [PC 18:0, 18:0] | 139.9% | 67.7% | 83.7% | – | – | – | – | –
29 | CCCCCCCCCCCCCC(=O)OC[C@H](COP(=O)([O-])OCC[N+](C)(C)C)OC(=O)CCCCCCCCCCCCC [PC 14:0, 14:0] | 162.3% | 86.3% | 97.3% | – | – | – | – | –
30 | CCCCCCCCCCC(=O)OC[C@@H](O)COP(=O)([O-])OCC[N+](C)(C)C [LPC 11:0] | – | – | – | 149.9% | 104.6% | 75.9% | – | –
31 | CCCCCCCCCCCCCCCCC(=O)OC[C@@H](O)COP(=O)([O-])OCC[N+](C)(C)C [LPC 17:0] | – | – | – | 164.3% | 87.5% | 119.0% | more than 90% | –
